Values of other authors in US20160220684A1, “COMPOSITION AND METHOD FOR RELIEVING PAIN AND INFLAMMATION, TREATMENT OF ERECTILE DYSFUNCTION, AND TREATMENT OF ACNE” (priority 2014, published 2016).

Tested on: intractable pain
Details: patients with metastatic cancer refractory to opioids; article published May 28, 2015

In the case of `O=C(c1ccccc1)c1ccc2n1CCC2C(=O)O` (racemic) [keterolac, (±)-5-benzoyl-2,3-dihydro-1H-pyrrolizine-1-carboxylic acid, compounded with 2-amino-2-(hydroxymethyl)-1,3-propanediol], the “analgesic effectiveness in intractable pain” value is given as “only effective non-opiod analgesic”.
